# Tests used:
# HIV = details: LDN alone on HIV+ subjects; stated by Bihari; cited from earlier work
# [1] = cited from earlier work
# [2] = Treatment of mild myocarditis / tachycardia in subjects; type: in vivo, human; details: for Response of mild myocarditis: four subjects
# Source text: Rogers et. al. described an IRIS case which manifested in the form of fulminant myocarditis. […] All four subjects of the instant experiment had no previous heart condition and were started with the HC alone, but were given LDN after the first mortality had occurred.
# They were turned down several times to be a participant in the herbal program because they refused to take their spouse for counseling. […] They were diagnosed with borderline cardiomegaly around one year after initially testing HIV positive, and developed tachycardia, but had no subjective complaint and never developed fever. We maintained them on Lanoxin 250 μg, which controlled their heart rate below 100 beats/minute, and also started them on LDN.
# [3] = Clinical observation of adverse effects; type: in vivo, human; details: 960 mg tablets daily
# Experimental: Patients were tested weekly for progress and toxicities. We then determined a dose which can be tolerated by most of the patients, and recruited more subjects. In a preferred embodiment, two HC's (one each, B.I.D), approximately equal to 500 mg of the active ingredients of U.S. Pat. No. 7,556,830 per day, are administered. However, adjustments must be made according to the body weight of the subject, and lesser or higher dosages of as low as 100 mg and as high as 1 g, can be deployed. As a majority of the patients' health improved, we progressively scheduled their appointments further apart, to once every two weeks, and then, on a monthly basis.
compound,measurement,setting,value
"O=C1CC[C@@]2(O)[C@H]3Cc4ccc(O)c5c4[C@@]2(CCN3CC2CC2)[C@H]1O5 [Naltrexone, 17-(cyclopropylmethyl)-4,5α-epoxy-3,14-dihydroxymorphinan-6-one]",Effect on CD4 count,HIV,"does not increase CD4 count, but only maintains its level or delays its decrease"
same,Bioavailability,[1],5-40%
NS(=O)(=O)c1cc(C(=O)O)c(NCc2ccco2)cc1Cl [furosemide],Response of mild myocarditis,[2],responded promptly
cotrimoxazole,Bone marrow suppression,[3],several patients developed bone marrow suppression
C[C@H]1O[C@@H](O[C@H]2[C@@H](O)C[C@H](O[C@H]3[C@@H](O)C[C@H](O[C@H]4CC[C@@]5(C)[C@H](CC[C@@H]6[C@@H]5C[C@@H](O)[C@]5(C)[C@@H](C7=CC(=O)OC7)CC[C@]65O)C4)O[C@@H]3C)O[C@@H]2C)C[C@H](O)[C@@H]1O [digoxin],Response of mild myocarditis,[2],responded promptly
same,Heart rate,"[2]; patient, tachycardia, 250 μg",below 100 beats/minute
